Results as given in patent US20110237659A1, “CHROMENONE DERIVATIVES AS TRPV3 ANTAGONISTS” (GLENMARK PHARMACEUTICALS S.A., priority 2008, published 2011).

Molecular target: T1, Human TRPV3 (Homo sapiens, UniProt Q8NET8)
T1 construct: expressed in transfected cells; host or cells: CHO cells
T1 sequence (Q8NET8 1-790): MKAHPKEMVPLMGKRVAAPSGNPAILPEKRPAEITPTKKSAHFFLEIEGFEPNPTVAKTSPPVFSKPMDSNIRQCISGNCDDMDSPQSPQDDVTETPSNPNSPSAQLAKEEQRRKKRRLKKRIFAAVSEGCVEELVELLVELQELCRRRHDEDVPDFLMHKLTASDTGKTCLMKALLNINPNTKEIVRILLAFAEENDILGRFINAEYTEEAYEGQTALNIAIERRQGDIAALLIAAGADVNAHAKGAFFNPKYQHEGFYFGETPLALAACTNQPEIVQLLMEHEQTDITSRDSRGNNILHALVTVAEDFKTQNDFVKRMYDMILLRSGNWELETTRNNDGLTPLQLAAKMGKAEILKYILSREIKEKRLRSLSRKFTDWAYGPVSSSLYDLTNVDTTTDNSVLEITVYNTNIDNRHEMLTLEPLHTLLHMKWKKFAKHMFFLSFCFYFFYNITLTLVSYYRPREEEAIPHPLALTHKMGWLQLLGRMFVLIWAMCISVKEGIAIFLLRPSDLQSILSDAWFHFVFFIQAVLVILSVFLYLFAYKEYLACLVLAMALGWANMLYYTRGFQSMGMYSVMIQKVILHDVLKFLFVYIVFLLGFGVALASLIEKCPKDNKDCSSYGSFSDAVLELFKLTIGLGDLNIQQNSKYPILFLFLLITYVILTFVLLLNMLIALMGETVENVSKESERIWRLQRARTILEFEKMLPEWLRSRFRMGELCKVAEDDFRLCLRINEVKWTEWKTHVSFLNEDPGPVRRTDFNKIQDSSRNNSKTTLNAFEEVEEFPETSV
Experiment: 45Calcium uptake assay: inhibition of 2-APB induced cellular uptake of radioactive calcium in human TRPV3 expressing CHO cells
Assay type: cell-based
Details: 2-APB 500 μM; for inhibition at 1 µM: 1.0 μM test compound, read-out: Percentage inhibition at 1.0 μM; for inhibition at 10 µM: 10.0 μM test compound, read-out: Percentage inhibition at 10.0 μM
Description: The illustrative examples of the present invention are screened for TRPV3 activity according to a modified procedure described in (a) Tóth, A. et al. Life Sciences 2003, 73, 487-498. (b) McNamara C, R. et al. Proc. Natl. Acad. Sci. U.S.A., 2007, 104, 13525-13530. The screening of the compounds can be carried out by other methods and procedures known to persons skilled in the art.
Screening for TRPV3 Antagonist Using the ^45Calcium Uptake Assay
The inhibition of TRPV3 receptor activation was followed as inhibition of 2-aminoethxydiphenylborate (2-APB) induced cellular uptake of radioactive calcium. Test compounds were dissolved in dimethyl sulfoxide (DMSO) to prepare 20 mM stock solution and then diluted using plain medium with DMEM/F-12 containing 1.8 mM CaCl2 to get desired concentration. Final concentration of DMSO in the reaction was 0.5% (v/v). Human TRPV3 expressing CHO cells were grown in DMEM/F-12 medium with 10% FBS, 1% penicillin-streptomycin solution, 400 μg/mL of G-418. Cells were seeded 24 h prior to the assay in 96 well plates so as to get ˜50,000 cells per well on the day of experiment. Cells were treated with test compounds for 10 minutes followed by addition of 2-APB at a final concentration of 500 μM and 5 μCi/mL ^45Ca^+2 for 4 minutes. Cells were washed and lysed using buffer containing 1% Triton X-100, 0.1% deoxycholate and 0.1% SDS. Radioactivity in the lysate was measured in Packardt Top count after addition of liquid scintillant. Concentration response curves were plotted as a % of maximal response obtained in the absence of test antagonist. IC50 value was calculated from concentration response curve by nonlinear regression analysis using GraphPad PRISM software.
Percentage inhibition at concentrations of 1.0 μM and 10.0 μM are given in the table along with IC50 (nM) values for selected examples.

Compound | inhibition at 1 µM | inhibition at 10 µM | IC50
COc1cccc(/C=C/c2oc3ccccc3c(=O)c2-c2ccc(C#N)cc2)c1OCC1CC1 [Example 3, 4-{2-[(E)-2-(2-Cyclopropylmethoxy-3-methoxyphenyl)-1-ethenyl]-4-oxo-4H-3-chromenyl}benzonitrile] | 90.4% | 94.5% | 150 to 1000 nM
COc1cccc(/C=C/c2oc3ccccc3c(=O)c2-c2ccc(C#N)cc2)c1OCC(C)(C)C [Example 7, 4-{2-[(E)-2-[2-(2,2-Dimethylpropoxy)-3-methoxyphenyl]-1-ethenyl]-4-oxo-4H-3-chromenyl}benzonitrile] | 89.8% | 93.2% | 50 to 150 nM
COc1cccc(/C=C/c2oc3cc(F)ccc3c(=O)c2-c2ccc(C#N)cc2)c1OC1CCCC1 [Example 11, 4-{2-[(E)-2-(2-Cyclopentyloxy-3-methoxyphenyl)-1-ethenyl]-7-fluoro-4-oxo-4H-3-chromenyl}benzonitrile] | 84.6% | 92.6% | 50 to 150 nM
COc1cccc(/C=C/c2oc3ccccc3c(=O)c2-c2ccc(C#N)cc2)c1OCC(C)C [Example 8, 4-{2-[(E)-2-[2-Isobutoxy-3-methoxyphenyl)-1-ethenyl]-4-oxo-4H-3-chromenyl}benzonitrile] | 89.3% | 96.4% | 50 to 150 nM
COc1cccc(/C=C/c2oc3cc(F)ccc3c(=O)c2-c2ccc(C#N)cc2)c1OCC1CC1 [Example 10, 4-{2-[(E)-2-(2-Cyclopropylmethoxy-3-methoxyphenyl)-1-ethenyl]-7-fluoro-4-oxo-4H-3-chromenyl}benzonitrile] | 87.3% | 95.6% | 150 to 1000 nM
N#Cc1ccc(-c2c(/C=C/c3cccc(OC(F)F)c3OCC3CC3)oc3ccccc3c2=O)cc1 [Example 4, 4-(2-{(E)-2-[2-(Cyclopropylomethoxy)-3-(difluoromethoxy)phenyl]vinyl}-4-oxo-4H-3-chromenyl}benzonitrile] | 92.9% | 94.8% | 150 to 1000 nM
COc1cccc(/C=C/c2oc3ccc(F)cc3c(=O)c2-c2ccc(C#N)cc2)c1OCC1CCC1 [Example 17, 4-{2-[(E)-2-(2-Cyclobutylmethoxy-3-methoxyphenyl)-1-ethenyl]-6-fluoro-4-oxo-4H-3-chromenyl}benzonitrile] | 78.2% | 89.8% | 150 to 1000 nM
COc1cccc(/C=C/c2oc3ccccc3c(=O)c2-c2ccc(C#N)cc2)c1O [Example 6, 4-{2-[(E)-2-(2-Hydroxy-3-methoxyphenyl)-1-ethenyl]-4-oxo-4H-3-chromenyl}-benzonitrile] | 32.1% | 83.9% | 
COc1cccc(/C=C/c2oc3cc(F)ccc3c(=O)c2-c2ccc(C#N)cc2)c1OCC(C)C [Example 13, 4-{7-Fluoro-2-[(E)-2-(2-isobutoxy-3-methoxyphenyl)-1-ethenyl]-4-oxo-4H-3-chromenyl}benzonitrile] | 92.9% | 96.7% | 50 to 150 nM
COc1cccc(/C=C/c2oc3cc(F)ccc3c(=O)c2-c2ccc(C#N)cc2)c1OCC(C)(C)C [Example 12, 4-{7-Fluoro-2-[(E)-2-(3-methoxy-2-neopentyloxyphenyl)-1-ethenyl]-4-oxo-4H-3-chromenyl}benzonitrile] | 82.2% | 91.2% | < 50 nM
COc1cccc(/C=C/c2oc3ccccc3c(=O)c2-c2ccc(C#N)cc2)c1OC1CCCC1 [Example 5, 4-{2-[(E)-2-(2-Cyclopentyloxy-3-methoxyphenyl)-1-ethenyl]-4-oxo-4H-3-chromenyl}benzonitrile] | 71.8% | 90.3% | 150 to 1000 nM
COc1cccc(/C=C/c2oc3c(F)cc(F)cc3c(=O)c2-c2ccc(C#N)cc2)c1OCC1CC1 [Example 22, 4-{2-[(E)-2-(2-Cyclopropylmethoxy-3-methoxyphenyl)-1-ethenyl]-6,8-difluoro-4-oxo-4H-3-chromenyl}benzonitrile] | 40% | 73% | 
COc1cccc(/C=C/c2oc3ccccc3c(=O)c2-c2ccc(OC(F)(F)F)cc2)c1OCC1CC1 [Example 1, 2-[(E)-2-(2-Cyclopropylmethoxy-3-methoxyphenyl)-1-ethenyl]-3-(4-trifluoromethoxy-phenyl)-4H-4-chromenone] | 36.7% | 62.2% | 
COc1cccc(/C=C/c2oc3cc(F)ccc3c(=O)c2-c2ccc(C#N)cc2)c1OCCC(F)(F)F [Example 14, 4-(7-Fluoro-2-{(E)-2-[3-methoxy-2-(3,3,3-trifluoropropoxy)phenyl]-1-ethenyl}-4-oxo-4H-3-chromenyl)benzonitrile] | 96% | 98.7% | 150 to 1000 nM
COc1cccc(/C=C/c2oc3ccc(F)cc3c(=O)c2-c2ccc(C#N)cc2)c1OCC(C)C [Example 19, 4-{6-Fluoro-2-[(E)-2-(2-isobutoxy-3-methoxyphenyl)-1-ethenyl]-4-oxo-4H-3-chromenyl}benzonitrile] | 70.2% | 87.8% | < 50 nM
COc1cccc(/C=C/c2oc3ccccc3c(=O)c2-c2ccc(C(F)(F)F)cc2)c1OCC1CC1 [Example 2, 2-[(E)-2-(2-Cyclopropylmethoxy-3-methoxyphenyl)-1-ethenyl]-3-(4-trifluoromethyl-phenyl)-4H-4-chromenone] | 63.1% | 75.4% | 150 to 1000 nM
COc1cccc(/C=C/c2oc3ccc(Cl)cc3c(=O)c2-c2ccc(C#N)cc2)c1OCC1CC1 [Example 21, 4-{6-Chloro-2-[(E)-2-(2-cyclopropylmethoxy-3-methoxyphenyl)-1-ethenyl]-4-oxo-4H-3-chromenyl}benzonitrile] | 76.4% | 87.7% | 150 to 1000 nM
COc1cccc(/C=C/c2oc3ccc(F)cc3c(=O)c2-c2ccc(C#N)cc2)c1OC1CCCC1 [Example 16, 4-{2-[(E)-2-(2-Cyclopentyloxy-3-methoxyphenyl)-1-ethenyl]-6-fluoro-4-oxo-4H-3-chromenyl}benzonitrile] | 59.4% | 74.4% | 
COc1cccc(/C=C/c2oc3ccc(F)cc3c(=O)c2-c2ccc(C#N)cc2)c1OCC(C)(C)C [Example 20] | 74.3% | 78.5% | < 50 nM
COc1cccc(/C=C/c2oc3ccc(F)cc3c(=O)c2-c2ccc(C#N)cc2)c1OCCC(C)C [Example 18, 4-{6-Fluoro-2-[(E)-2-(2-isopentyloxy-3-methoxyphenyl)-1-ethenyl]-4-oxo-4H-3-chromenyl}benzonitrile] | 55.2% | 71.7% | 
COc1cccc(/C=C/c2oc3ccc(F)cc3c(=O)c2-c2ccc(C#N)cc2)c1OCC1CC1 [Example 15, 4-{2-[(E)-2-(2-Cyclopropylmethoxy-3-methoxyphenyl)-1-ethenyl]-6-fluoro-4-oxo-4H-3-chromenyl}benzonitrile] | 79.3% | 94.1% | 150 to 1000 nM
COc1cccc(/C=C/c2oc3ccccc3c(=O)c2-c2ccc(C#N)cc2)c1OCCC(F)(F)F [Example 9, 4-(2-{(E)-2-[3-Methoxy-2-(3,3,3-trifluoropropoxy)phenyl]-1-ethenyl}-4-oxo-4H-3-chromenyl}benzonitrile] | 94.5% | 98% | 50 to 150 nM
